Assay results from patent US20170304288A1, “Formulations of Methionine Aminopeptidase Inhibitors for Treating Infectious Diseases” (Texas Southern University, priority 2013, published 2017).
≈ marks a conversion by molar mass, not a printed value. Where two headings read alike, the source gives them in different places.

Key:
[1] = system: E. faecalis OG1RF; assay: Liquid-based C. elegans infection model, survival; format: in vivo, Enterococcus faecalis
[2] = Stability in plasma and urine samples for LC-MS/MS analysis; format: in vitro ADME, rat
Method: The short-term (bench-top) stability of compound 5 in plasma and urine samples was evaluated by analyzing three sets each of freshly prepared plasma and urine samples containing compound 5 and placed them on the bench-top for 2, 4, and 6 h, respectively or at −80° C. for 14 days. All the samples were compared with freshly prepared samples of the same concentration.
The stability of compound 5 in processed samples (on-instrument or auto-sampler stability) was also evaluated by comparing freshly prepared plasma and urine QC samples to similar samples placed on the auto-sampler for 2, 4, and 6 h respectively. One set of the plasma and urine QC samples was extracted with acetonitrile containing IS, and the other set with pure acetonitrile without IS.

[3] = Solubility in various solvents, shaker method; format: physicochemical; conditions: for solubility at 72 h: thermodynamic from solid, read-out: Mean Solubility ± SD
Method: Assessment of the solubility of compound 5 in various solvents is important in developing suitable formulations for preclinical and clinical studies. The solubility of compound 5 in water, ethanol, poly ethylene glycol 400, propylene glycol monocapryrate type I (PGMC), propylene glycol monocapryrate type II (CAPYROL 90), dimethyl sulfoxide (DMSO), dimethyl acetamide (DMA), TWEEN 80, TWEEN 20, paraffin oil, soybean oil, and olive oil were determined by the shaker method. Briefly, excess amount of compound 5 was added to each of the selected solvents in a scintillation vial and placed on a reciprocating shaker to shake at room temperature for 72 h. The samples were centrifuged at 14,000 rpm for 10 min and subsequently filtered through a 0.22 μm filtration unit; the resulting filtrate was analyzed by HPLC-UV to determine the amount of compound 5 dissolved in the solvents. The experiment was conducted in triplicate.

[4] = Stability of co-solvent formulations at storage temperatures; format: physicochemical; conditions: stored at −20° C., 4° C. and 25° C.; Day 3, 7, 14 and 30
Method: The stability of the optimal co-solvent formulations was investigated at various storage temperatures. Briefly, aliquots of the optimal co-solvent formulations were stored at different temperatures (−20° C., 4° C. and 25° C.) and analyzed using LC/MS/MS on Day 3, 7, 14 and 30 to determine the amount of compound 5 remaining. The experiment was conducted in triplicates. […] The optimal co-solvent formulations were applied to the pharmacokinetic study of compound 5 in rats (Table 18).

[5] = system: plasma protein; assay: Plasma protein binding in rat plasma
[6] = system: E. faecalis V583; assay: Liquid-based C. elegans infection model, survival
[7] = system: Pseudomonas aeruginosa (PA14); assay: Screening against P. aeruginosa in LB and SK media
[8] = system: E. faecalis V583; assay: Assay of E. faecalis inhibition (MIC) in BHI culture

## Oc1c(Br)cc(Cl)c2cccnc12 [Compound 5, 7-bromo-5-chloroquinolin-8-ol]
[1]; 4×10^−4 μg/mL
  survival of the nematodes at Maximum protective concentration: ~80%
[1]; 4×10^−5 μg/mL to 4×10^−4 μg/mL
  survival of infected animals compared to tetracycline: survived just as well, or better, than animals treated with tetracycline
[1]; C. elegans
  MPC (Minimum Protective Concentration) OG1RF: 4e-11 µg/mL
  MmaxPC (Maximum Protective Concentration) OG1RF: 0.0004 µg/mL
[2]; Plasma, 2 hr
  Processed sample or Auto-sampler stability No IS: 97.8 ± 1.11
  Processed sample or Auto-sampler stability With IS: 95.9 ± 1.87
[2]; Plasma, 2 hr bench-top
  Short-term Stability: 91.6 ± 4.06
[2]; Plasma, 4 hr
  Processed sample or Auto-sampler stability No IS: 97.1 ± 5.42
  Processed sample or Auto-sampler stability With IS: 94.7 ± 4.20
[2]; Plasma, 4 hr bench-top
  Short-term Stability: 95.1 ± 3.24
[2]; Plasma, 6 hr
  Processed sample or Auto-sampler stability No IS: 95.5 ± 6.69
  Processed sample or Auto-sampler stability With IS: 97.3 ± 5.55
[2]; Plasma, 6 hr bench-top
  Short-term Stability: 93.7 ± 1.17
[2]; Plasma, 14 days at −80° C.
  Short-term Stability: 91.3 ± 5.45
[2]; Urine, 2 hr
  Processed sample or Auto-sampler stability No IS: 92.3 ± 1.32
  Processed sample or Auto-sampler stability With IS: 102.1 ± 1.35
[2]; Urine, 2 hr bench-top
  Short-term Stability: 94.4 ± 1.83
[2]; Urine, 4 hr
  Processed sample or Auto-sampler stability No IS: 92.8 ± 2.31
  Processed sample or Auto-sampler stability With IS: 99.5 ± 1.89
[2]; Urine, 4 hr bench-top
  Short-term Stability: 93.2 ± 4.10
[2]; Urine, 6 hr
  Processed sample or Auto-sampler stability No IS: 94.2 ± 1.59
  Processed sample or Auto-sampler stability With IS: 103.2 ± 2.33
[2]; Urine, 6 hr bench-top
  Short-term Stability: 95.6 ± 1.44
[2]; Urine, 14 days at −80° C.
  Short-term Stability: 101.6 ± 4.29
[3]; Dimethyl acetamide
  Mean Solubility ± SD: >80 mg/mL
[3]; dimethyl acetamide, organic solvent or mixture
  solubility at 72 h: > 80 mg/mL
[3]; water
  solubility at 72 h: 0.07 mg/mL (≈ 271 µM)
[4]
  stability in the optimal co-solvent formulations: stable in the co-solvent formulations for up to one month
[5]; Concentration 5 μg/mL
  Bound fraction (%) ± SD: 91.0 ± 0.6%
[5]; Concentration 25 μg/mL
  Bound fraction (%) ± SD: 96.3 ± 1.4%
[5]; Concentration 50 μg/mL
  Bound fraction (%) ± SD: 98.3 ± 0.3%
[6]
  MPC (Minimum Protective Concentration) V583: 4e-12 µg/mL
[7]; PA14, read-out: MIC30 P. aeruginosa
  MIC: < 2.5 µg/mL
[7]; PA14, read-out: inhibition of P. aeruginosa
  inhibition at 2.5 µg/mL: ~80%
[8]
  Minimum Inhibitory Concentration MIC30 V583: 0.25 to 0.50 µg/mL
[8]; Enterococcus faecalis, V583, read-out: Minimum Inhibitory Concentration MIC30 V583
  MIC: 0.25 to 0.5 µg/mL (≈ 0.967 to 1.93 µM)
